In patent US10857150B2, “Use of sanglifehrin macrocyclic analogues as anticancer compounds” (NEUROVIVE PHARMACEUTICAL AB, priority 2016, dated 2020):

Legend:
LIXC-066 = assay: 7-day proliferation assay, Calcein AM staining; assay type: cell-based, human
Description: (§1) The cells were seeded in a 96-well plate, test compound or DMSO was added and the plate was incubated for additional four days or 7 days (Calcein AM assay). Viable cell counts were determined after detachment by treatment with trypsin either by trypan blue exclusion, flow cytometry, indirectly by measuring ATP content by addition of an ATP measuring reagent (CellTiter Glo), or Calcein AM, prepared according to the instruction of the manufacturer directly.
(§2) XLfit software ((Fit model: Dose response one site/^F(x)[fit=(A+((B−A)/(1+((C/x)^D))))]) for curve fitting and IC50 calculation) was used for curve fitting and IC50 calculation.
(§3) In vitro evaluation of a sanglifehrin macrocyclic analogue (1) for anticancer activity against human hepatocyte cancer cell lines in comparison with NV556 (10) a 7-day proliferation assay. The cell numbers were determined by Calcein AM staining as described in the methods section. Data are from one experiment with each cell line testing duplicate samples of 9 concentrations of each compound. Both compounds were included in each experiment.
as §3, with “the cyclophilin inhibitor alisporivir and the kinase inhibitor sorafenib in” for “NV556 (10)”, “one single” for “one”, “or means of two independent experiments” for “with each cell line”, “All three” for “Both”

LIXC-086 = assay: 7-day proliferation assay, Calcein AM staining; assay type: cell-based, human
Description: as §1, §2, §3
as §3, with “the cyclophilin inhibitor alisporivir and the kinase inhibitor sorafenib in” for “NV556 (10)”, “one single” for “one”, “or means of two independent experiments” for “with each cell line”, “All three” for “Both”

LIXC-006 = assay: 7-day proliferation assay, Calcein AM staining; assay type: cell-based, human
Description: as §1, §2, §3
as §3, with “the cyclophilin inhibitor alisporivir and the kinase inhibitor sorafenib in” for “NV556 (10)”, “one single” for “one”, “or means of two independent experiments” for “with each cell line”, “All three” for “Both”

Hep3B2.1-7-Luc = assay: 7-day proliferation assay, Calcein AM staining; assay type: cell-based, human
Description: as §1, §2, §3
as §3, with “the cyclophilin inhibitor alisporivir and the kinase inhibitor sorafenib in” for “NV556 (10)”, “one single” for “one”, “or means of two independent experiments” for “with each cell line”, “All three” for “Both”

Huh-7 = assay: monolayer proliferation assay, human tumour cell line panel; assay type: cell-based; conditions: means of two experiments, 3 nM-25 μM
Description: as §1
(§4) Percentage inhibition in the ATP test was calculated by the formula described below: Growth inhibition %: 100−100×(Experimental−Blank)/(DMSO−Blank)
as §2
(§5) In vitro evaluation of compounds for anticancer activity in a panel of human tumour cell lines in a monolayer proliferation assay were carried out at Shanghai Chempartner.
(§6) In vitro evaluation of a sanglifehrin macrocyclic analogue (NV556) for anticancer activity in a panel of 11 human tumour cell lines in a monolayer proliferation assay was carried out as described in the general methods above. Data are means from two independent experiments testing 10 concentrations (3 nM-25 μM) in duplicate.

HT-29 = assay: as above; assay type: cell-based; conditions: means of two experiments, 3 nM-25 μM
Description: as §1, §4, §2, §5, §6

RPMI 8226 = assay: as above; assay type: cell-based; conditions: means of two experiments, 3 nM-25 μM
Description: as §1, §4, §2, §5, §6

HepG2 [1] = assay: as above; assay type: cell-based; conditions: means of two experiments, 3 nM-25 μM
Description: as §1, §4, §2, §5, §6

U251 = assay: as above; assay type: cell-based; conditions: means of two experiments, 3 nM-25 μM
Description: as §1, §4, §2, §5, §6

SK-Hep-1 = assay: as above; assay type: cell-based; conditions: means of two experiments, 3 nM-25 μM
Description: as §1, §4, §2, §5, §6

A549 = assay: as above; assay type: cell-based; conditions: means of two experiments, 3 nM-25 μM
Description: as §1, §4, §2, §5, §6

A375 = assay: as above; assay type: cell-based; conditions: means of two experiments, 10 concentrations 3 nM-25 μM
Description: as §1, §4, §2, §5, §6

PC-3 = assay: as above; assay type: cell-based; conditions: means of two experiments, 3 nM-25 μM
Description: as §1, §4, §2, §5, §6

MDA-MB-231 = assay: as above; assay type: cell-based; conditions: means of two experiments, 3 nM-25 μM
Description: as §1, §4, §2, §5, §6

HCT 116 = assay: as above; assay type: cell-based; conditions: means of two experiments, 3 nM-25 μM
Description: as §1, §4, §2, §5, §6

PANC-1 = assay: as above; assay type: cell-based; conditions: means of two experiments, 3 nM-25 μM
Description: as §1, §4, §2, §5, §6

A2780 = assay: as above; assay type: cell-based; conditions: means of two experiments, 3 nM-25 μM
Description: as §1, §4, §2, §5, §6

[2] = system: SK-Hep-1 tumour cell line; assay: combined anticancer activity, monolayer proliferation assay; assay type: cell-based, human; conditions: over certain concentration ranges
Description: as §1
In vitro evaluation of the combined anticancer activity of a sanglifehrin macrocyclic analogue with the anticancer agents sorafenib or doxorubicin against the SK-Hep-1 tumour cell line in a monolayer proliferation assay was carried out as described in the general methods above.

LIXC-002 = assay: 7-day proliferation assay, Calcein AM staining; assay type: cell-based, human; conditions: Example 5, one experiment
Description: as §1, §2, §3

cyclophilin A (CyPA) = cyclophilin A (CyPA) (Homo sapiens, UniProt P62937); conditions: higher affinity; cited from earlier work
HepG2 [3] = assay: combination with sorafenib, 7-day proliferation assay (Calcein AM), isobologram; assay type: cell-based, human; conditions: combination with sorafenib at different doses
Description: as §1
To test for potential synergistic activity with sorafenib, compound 1 (A) was added at a range of concentrations along with a range of concentrations of sorafenib (B) against a liver cancer cell line, HepG2 in a 7-day proliferation assay (Calcein AM assay, described in the methods section). Data are from one single experiment representative of two independent experiments testing duplicate samples. The data was plotted in a normalized isobologram (Chou and Martin. CompuSyn for Drug Combinations: PC Software and User's Guide: A Computer Program for Quantitation of Synergism and Antagonism in Drug Combinations, and the Determination of IC50 and ED50 and LD50 Values, ComboSyn Inc, Paramus, (NJ), 2005) and is shown in FIG. 7. Values at the lower left below the hypotenuse indicate synergism.

[4] = system: human hepatocyte cancer cell lines; assay: 7-day proliferation assay, comparison of potency over the cell lines; assay type: cell-based
Description: as §1, §3
as §3, with “the cyclophilin inhibitor alisporivir and the kinase inhibitor sorafenib in” for “NV556 (10)”, “one single” for “one”, “or means of two independent experiments” for “with each cell line”, “All three” for “Both”

LIXC-011 = assay: 7-day proliferation assay, Calcein AM staining; assay type: cell-based; conditions: Homo sapiens, 168 h, Example 6, n 1
Description: as §1, §2
as §3, with “the cyclophilin inhibitor alisporivir and the kinase inhibitor sorafenib in” for “NV556 (10)”, “one single” for “one”, “or means of two independent experiments” for “with each cell line”, “All three” for “Both”

HepG2 [5] = assay: 7-day proliferation assay, Calcein AM staining; assay type: cell-based; conditions: Homo sapiens, 168 h, Example 6, n 2
Description: as §1, §2
as §3, with “the cyclophilin inhibitor alisporivir and the kinase inhibitor sorafenib in” for “NV556 (10)”, “one single” for “one”, “or means of two independent experiments” for “with each cell line”, “All three” for “Both”

LIXC-003 = assay: 7-day proliferation assay, Calcein AM staining; assay type: cell-based; conditions: Homo sapiens, 168 h, Example 6, n 2
Description: as §1, §2
as §3, with “the cyclophilin inhibitor alisporivir and the kinase inhibitor sorafenib in” for “NV556 (10)”, “one single” for “one”, “or means of two independent experiments” for “with each cell line”, “All three” for “Both”

LIXC-004 = assay: 7-day proliferation assay, Calcein AM staining; assay type: cell-based; conditions: Homo sapiens, 168 h, Example 6, n 2
Description: as §1, §2
as §3, with “the cyclophilin inhibitor alisporivir and the kinase inhibitor sorafenib in” for “NV556 (10)”, “one single” for “one”, “or means of two independent experiments” for “with each cell line”, “All three” for “Both”

LIXC-012 = assay: 7-day proliferation assay, Calcein AM staining; assay type: cell-based; conditions: Homo sapiens, 168 h, Example 6, n 2
Description: as §1, §2
as §3, with “the cyclophilin inhibitor alisporivir and the kinase inhibitor sorafenib in” for “NV556 (10)”, “one single” for “one”, “or means of two independent experiments” for “with each cell line”, “All three” for “Both”

[6] = read-out: Concentration giving 50% of maximum effect
[7] = Homo sapiens, 168 h, Example 5, one experiment
[8] = Homo sapiens, 168 h, Example 6, n 1

Sequence of cyclophilin A (CyPA) (P62937 whole entry, species assumed): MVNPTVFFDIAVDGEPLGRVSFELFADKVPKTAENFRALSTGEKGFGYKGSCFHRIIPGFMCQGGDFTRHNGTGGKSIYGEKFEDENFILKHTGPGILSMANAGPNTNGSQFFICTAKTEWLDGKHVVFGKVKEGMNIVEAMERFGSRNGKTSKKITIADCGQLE

## CC(=O)CCC1C(=O)NC(C(C)C)C(=O)NC(Cc2cc(O)cc(F)c2)C(=O)N2CCCC(N2)C(=O)OC(C(C)=CC=CC(=O)N2CCCCO2)CC=CC=CC(O)C(C)C1O (stereo not drawn) [NV556]
LIXC-066; Example 5, one experiment
  IC50: 244 nM
LIXC-086; Example 5, one experiment
  IC50: 9490 nM
LIXC-006; Example 5, one experiment
  IC50: 62 nM
Hep3B2.1-7-Luc; Example 5, one experiment
  IC50: 54 nM
Huh-7
  Maximum inhibition (%): 22.4%
Huh-7; [6]
  EC50: 30 nM
HT-29
  Maximum inhibition (%): 56.8%
RPMI 8226
  Maximum inhibition (%): 87.1%
RPMI 8226; [6]
  EC50: 200 nM
HepG2 [1]
  Maximum inhibition (%): 80.6%
HepG2 [1]; [6]
  EC50: 100 nM
U251
  Maximum inhibition (%): 62.0%
U251; [6]
  EC50: 16900 nM
SK-Hep-1
  Maximum inhibition (%): 94.6%
SK-Hep-1; [6]
  EC50: 100 nM
A549
  Maximum inhibition (%): 45.2%
A549; [6]
  EC50: 100 nM
A375
  Maximum inhibition (%): 87.6%
A375; [6]
  EC50: 2100 nM
PC-3
  Maximum inhibition (%): 45.3%
PC-3; [6]
  EC50: 300 nM
MDA-MB-231
  Maximum inhibition (%): 49.9%
MDA-MB-231; [6]
  EC50: 500 nM
HCT 116
  Maximum inhibition (%): 88.7%
HCT 116; [6]
  EC50: 100 nM
PANC-1
  Maximum inhibition (%): 51.0%
PANC-1; [6]
  EC50: 1300 nM
A2780
  Maximum inhibition (%): 83.7%
A2780; [6]
  EC50: 100 nM
[2]; combination with doxorubicin
  reduction in cell numbers, combination versus single compounds: stronger reduction in cell numbers than either compound alone
[2]; combination with sorafenib
  reduction in cell numbers, combination versus single compounds: stronger reduction in cell numbers than either compound alone
LIXC-002
  IC50: 39 nM

## CC[C@H]1C[C@H](C)[C@@]2(NC1=O)O[C@@H](C[C@H](O)[C@@H](C)CC/C=C/C=C(\C)[C@@H]1C/C=C/C=C/[C@H](O)[C@H](C)[C@@H](O)[C@@H](CCC(C)=O)C(=O)N[C@@H](C(C)C)C(=O)N[C@@H](Cc3cccc(O)c3)C(=O)N3CCC[C@H](N3)C(=O)O1)[C@H](C)[C@H](O)[C@@H]2C [SfA, Sanglifehrin A]
Cyclophilin A (CyPA)
  affinity for CyPA compared to CsA: approximately 20 fold

## CC(=O)CC[C@H]1C(=O)N[C@@H](C(C)C)C(=O)N[C@@H](Cc2cc(O)cc(F)c2)C(=O)N2CCCC(N2)C(=O)O[C@H](/C(C)=C/C=C/C(=O)OC(C)(C)C)C/C=C/C=C/[C@H](O)[C@H](C)[C@H]1O (stereo partly drawn) [Compound 1]
LIXC-066; [7]
  IC50: 93 nM
LIXC-066; [8]
  IC50: 169 nM
LIXC-086; [7]
  IC50: 905 nM
LIXC-086; [8]
  IC50: 686 nM
LIXC-006; [7]
  IC50: 9 nM
LIXC-006; Homo sapiens, 168 h, Example 6, n 2
  IC50: 6 nM
Hep3B2.1-7-Luc; [7]
  IC50: 11 nM
Hep3B2.1-7-Luc; [8]
  IC50: 9 nM
HepG2 [3]
  growth inhibitory effect of simultaneous treatment: synergistic growth inhibitory effect
[4]; Example 5, all cases (5 cell lines)
  potency relative to NV556 (10): 3-10 fold
[4]; Example 6, all cases (9 cell lines)
  potency relative to alisporivir: 3-1000 fold
[4]; Example 6, in 8/9 cases
  potency relative to sorafenib: 3-600 fold
LIXC-011
  IC50: 12 nM
HepG2 [5]
  IC50: 7 nM
LIXC-003
  IC50: 8 nM
LIXC-004
  IC50: 4 nM
LIXC-012
  IC50: 65 nM
LIXC-002; Homo sapiens, 168 h
  IC50: < 3 nM
